# Where a SMILES comes first, the peptide text is derived from it. [ ]: non-standard residue; d: D form. Dolaproine = CO[C@@H]([C@@H]1CCCN1)[C@@H](C)C(=O)O; Dil = CC[C@H](C)[C@H](NC)[C@@H](CC(=O)O)OC; NMeV = CN[C@H](C(=O)O)C(C)C
# B1: AB200-(2Vk8)_R2-CDR1-hs-v4 (antibody)
# heavy: QVQLVQSGAEVKKPGSSVKVSCKASGGTFSSYAISWVRQAPGQGLEWMGATYRSQSDTFYNQKFKSRVTITADKSTSTAYMELSSLRSEDTAVYYCARGAVYHGYDVIDNWGQGTLVTVSSASTKGPSVFPLAPSSKSTSGGTAALGCLVKDYFPEPVTVSWNSGALTSGVHTFPAVLQSSGLYSLSSVVTVPSSSLGTQTYICNVNHKPSNTKVDKKVEPKSC
# light: DIQMTQSPSSLSASVGDRVTITCRASQSISSYINWYQQKPGKAPKLLIYATSNLQIGVPSRFSGSGSGTDFTLTISSLQPEDFATYYCQQFRKLPWSFGQGTKLEIKRTVAAPSVFIFPPSDEQLKSGTASVVCLLNNFYPREAKVQWKVDNALQSGNSQESVTEQDSKDSTYSLSSTLTLSKADYEKHKVYACEVTHQGLSSPVTKSFNRGEC
# Columns and labels:
# MM1.S cells = assay: CellTiter-Glo cell viability, MM1.S; format: cell-based, human; settings: MM1S cells, 6 days; for LD50 / GI50: CellTiter-Glo; for GI50: read-out: GI50; for RminAve: negative = cell death vs T0
# MM1.R cells = assay: CellTiter-Glo cell viability, MM1.R; format: cell-based, human; settings: MM1R cells, 6 days; for LD50 / GI50: CellTiter-Glo; for GI50: read-out: GI50; for RminAve: negative = cell death vs T0
# OPM2 cells = assay: CellTiter-Glo cell viability, OPM2 (normal serum); format: cell-based, human; settings: OPM2 cells, 6 days; for LD50 / GI50: CellTiter-Glo; for GI50: read-out: GI50; for RminAve: negative = cell death vs T0
# NCI-H929 cells = assay: CellTiter-Glo cell viability, NCI-H929 (normal serum); format: cell-based, human; settings: NCIH929 cells, 6 days; for LD50 / GI50: CellTiter-Glo; for GI50: read-out: GI50; for RminAve: negative = cell death vs T0
# MOLP8 cells = assay: CellTiter-Glo cell viability, MOLP8; format: cell-based, human; settings: MOLP8 cells, 6 days; for LD50 / GI50: CellTiter-Glo; for GI50: read-out: GI50; for RminAve: negative = cell death vs T0
# LP-1 cells = assay: 6-day CellTiter-Glo cell viability, LP-1; format: cell-based, human; settings: LP1 cells, 6 days; for LD50 / GI50: CellTiter-Glo; for GI50: read-out: GI50; for RminAve: negative = cell death vs T0
# AMO-1 cells = assay: 6-day CellTiter-Glo cell viability, AMO-1; format: cell-based, human; settings: AMO1 cells, 6 days; for LD50 / GI50: CellTiter-Glo; for GI50: read-out: GI50; for RminAve: negative = cell death vs T0
# EJM cells = assay: 6-day CellTiter-Glo cell viability, EJM; format: cell-based, human; settings: EJM cells, 6 days; for LD50 / GI50: CellTiter-Glo; for GI50: read-out: GI50; for RminAve: negative = cell death vs T0
# RPMI-8226 cells = assay: 6-day CellTiter-Glo cell viability, RPMI-8226; format: cell-based, human; settings: RPMI8226 cells, 6 days; for LD50 / GI50: CellTiter-Glo; for GI50: read-out: GI50; for RminAve: negative = cell death vs T0
# U266B1 cells = assay: 6-day CellTiter-Glo cell viability, U266B1; format: cell-based, human; settings: U266B1 cells, 6 days; for LD50 / GI50: CellTiter-Glo; for GI50: read-out: GI50; for RminAve: negative = cell death vs T0
# KMS-11 cells = assay: 6-day CellTiter-Glo cell viability, KMS-11; format: cell-based, human; settings: KMS11 cells, 6 days; for LD50 / GI50: CellTiter-Glo; for GI50: read-out: GI50; for RminAve: negative = cell death vs T0
# [1] = ThermoFluor thermostability (Tm); format: physicochemical; settings: Fab fragment; heavy chain clone paired with light chain AB200-(2Vk8)
molecule,measurement,setting,value
CC[C@H](O)[C@@H](C)[C@H]1O[C@@H]1C[C@@](C)(O)/C=C/C=C(\C)[C@H]1OC(=O)C[C@H](O)CC[C@@](C)(O)[C@@H](OC(=O)N2CCN(C3CCCCCC3)CC2)/C=C/[C@@H]1C [E7107 (D11)],AUC (nM * % relative viability),MM1.S cells,380.5913 nM * % relative viability
same,LD50,MM1.S cells,18.155 nM
same,GI50,MM1.S cells,3.51 nM
same,RminAve,MM1.S cells,−99.7761%
same,AUC (nM * % relative viability),MM1.R cells,374.4113 nM * % relative viability
same,LD50,MM1.R cells,16.5876 nM
same,GI50,MM1.R cells,3.33 nM
same,RminAve,MM1.R cells,−99.831%
same,AUC (nM * % relative viability),OPM2 cells,289.9829 nM * % relative viability
same,LD50,OPM2 cells,4.7541 nM
same,GI50,OPM2 cells,1.67 nM
same,RminAve,OPM2 cells,−99.6884%
same,AUC (nM * % relative viability),NCI-H929 cells,321.415 nM * % relative viability
same,LD50,NCI-H929 cells,5.836 nM
same,GI50,NCI-H929 cells,2.81 nM
same,RminAve,NCI-H929 cells,−99.8426%
same,AUC (nM * % relative viability),MOLP8 cells,361.7797 nM * % relative viability
same,LD50,MOLP8 cells,16.8329 nM
same,GI50,MOLP8 cells,2.43 nM
same,RminAve,MOLP8 cells,−99.6765%
same,AUC (nM * % relative viability),LP-1 cells,313.7701 nM * % relative viability
same,LD50,LP-1 cells,6.2485 nM
same,GI50,LP-1 cells,2.2 nM
same,RminAve,LP-1 cells,−99.6676%
same,AUC (nM * % relative viability),AMO-1 cells,487.7156 nM * % relative viability
same,LD50,AMO-1 cells,50.4287 nM
same,GI50,AMO-1 cells,14.9 nM
same,RminAve,AMO-1 cells,−96.8372%
same,AUC (nM * % relative viability),EJM cells,434.2294 nM * % relative viability
same,LD50,EJM cells,22.175 nM
same,GI50,EJM cells,9.45 nM
same,RminAve,EJM cells,−99.071%
same,AUC (nM * % relative viability),RPMI-8226 cells,359.1272 nM * % relative viability
same,LD50,RPMI-8226 cells,10.8782 nM
same,GI50,RPMI-8226 cells,3.59 nM
same,RminAve,RPMI-8226 cells,−99.7762%
same,AUC (nM * % relative viability),U266B1 cells,422.0108 nM * % relative viability
same,LD50,U266B1 cells,18.2733 nM
same,GI50,U266B1 cells,8.76 nM
same,RminAve,U266B1 cells,−95.1886%
same,AUC (nM * % relative viability),KMS-11 cells,382.1527 nM * % relative viability
same,LD50,KMS-11 cells,13.1801 nM
same,GI50,KMS-11 cells,5.03 nM
same,RminAve,KMS-11 cells,−99.2702%
CC[C@H](C)[C@@H]([C@@H](CC(=O)N1CCC[C@H]1[C@H](OC)[C@@H](C)C(=O)N[C@@H](Cc1ccccc1)C(=O)O)OC)N(C)C(=O)[C@@H](NC(=O)[C@@H](NC)C(C)C)C(C)C [MMAF] (H-[NMeV]V[Dil][Dolaproine]F-OH),AUC (nM * % relative viability),MM1.S cells,726.0671 nM * % relative viability
same,LD50,MM1.S cells,615.7256 nM
same,GI50,MM1.S cells,296 nM
same,RminAve,MM1.S cells,−99.8301%
same,AUC (nM * % relative viability),MM1.R cells,721.5643 nM * % relative viability
same,LD50,MM1.R cells,584.6173 nM
same,GI50,MM1.R cells,281 nM
same,RminAve,MM1.R cells,−99.7818%
same,AUC (nM * % relative viability),OPM2 cells,740.134 nM * % relative viability
same,LD50,OPM2 cells,723.9832 nM
same,GI50,OPM2 cells,348 nM
same,RminAve,OPM2 cells,−99.7203%
same,AUC (nM * % relative viability),NCI-H929 cells,734.8893 nM * % relative viability
same,LD50,NCI-H929 cells,676.4428 nM
same,GI50,NCI-H929 cells,321 nM
same,RminAve,NCI-H929 cells,−99.782%
same,AUC (nM * % relative viability),MOLP8 cells,788.7538 nM * % relative viability
same,LD50,MOLP8 cells,4689.579 nM
same,GI50,MOLP8 cells,254 nM
same,RminAve,MOLP8 cells,−58.9492%
same,AUC (nM * % relative viability),LP-1 cells,724.5606 nM * % relative viability
same,LD50,LP-1 cells,761.0403 nM
same,GI50,LP-1 cells,223 nM
same,RminAve,LP-1 cells,−97.9742%
same,AUC (nM * % relative viability),AMO-1 cells,640.894 nM * % relative viability
same,LD50,AMO-1 cells,243.7059 nM
same,GI50,AMO-1 cells,101 nM
same,RminAve,AMO-1 cells,−99.5356%
same,AUC (nM * % relative viability),EJM cells,600.0131 nM * % relative viability
same,LD50,EJM cells,194.3761 nM
same,GI50,EJM cells,51.5 nM
same,RminAve,EJM cells,−98.8551%
same,AUC (nM * % relative viability),RPMI-8226 cells,714.2788 nM * % relative viability
same,LD50,RPMI-8226 cells,557.1533 nM
same,GI50,RPMI-8226 cells,224 nM
same,RminAve,RPMI-8226 cells,−95.3537%
same,AUC (nM * % relative viability),U266B1 cells,661.824 nM * % relative viability
same,LD50,U266B1 cells,192.3371 nM
same,GI50,U266B1 cells,67.8 nM
same,RminAve,U266B1 cells,−89.2656%
same,AUC (nM * % relative viability),KMS-11 cells,706.6578 nM * % relative viability
same,LD50,KMS-11 cells,490.3828 nM
same,GI50,KMS-11 cells,235 nM
same,RminAve,KMS-11 cells,−98.8009%
N.N.[Cl][Pt][Cl] [cisplatin],GI50,MM1.S cells,10200 nM
same,RminAve,MM1.S cells,−99.8687%
same,GI50,MM1.R cells,7300 nM
same,RminAve,MM1.R cells,−99.9355%
same,GI50,OPM2 cells,17000 nM
same,RminAve,OPM2 cells,−99.784%
same,GI50,NCI-H929 cells,21400 nM
same,RminAve,NCI-H929 cells,−99.945%
same,GI50,MOLP8 cells,5070 nM
same,RminAve,MOLP8 cells,−99.8824%
same,GI50,LP-1 cells,50100 nM
same,RminAve,LP-1 cells,−97.8184%
same,GI50,AMO-1 cells,8590 nM
same,RminAve,AMO-1 cells,−99.8648%
same,GI50,EJM cells,30100 nM
same,RminAve,EJM cells,−99.8757%
same,GI50,RPMI-8226 cells,16300 nM
same,RminAve,RPMI-8226 cells,−99.2206%
same,GI50,U266B1 cells,39900 nM
same,RminAve,U266B1 cells,−99.4122%
same,GI50,KMS-11 cells,14400 nM
same,RminAve,KMS-11 cells,−99.8489%
B1,Tm,[1],76.495 °C
